# Patent US12612384B2, “Heterocyclic CYP4A inhibitor compounds and compositions thereof” (MBD CO., LTD., priority 2021, dated 2026)
# Biological target: T1, CYP4A (Homo sapiens, UniProt Q02928)
# T1 construct: purchased; host or cells: bacterial membranes ('bactosome')
# T1 sequence (Q02928 5-519): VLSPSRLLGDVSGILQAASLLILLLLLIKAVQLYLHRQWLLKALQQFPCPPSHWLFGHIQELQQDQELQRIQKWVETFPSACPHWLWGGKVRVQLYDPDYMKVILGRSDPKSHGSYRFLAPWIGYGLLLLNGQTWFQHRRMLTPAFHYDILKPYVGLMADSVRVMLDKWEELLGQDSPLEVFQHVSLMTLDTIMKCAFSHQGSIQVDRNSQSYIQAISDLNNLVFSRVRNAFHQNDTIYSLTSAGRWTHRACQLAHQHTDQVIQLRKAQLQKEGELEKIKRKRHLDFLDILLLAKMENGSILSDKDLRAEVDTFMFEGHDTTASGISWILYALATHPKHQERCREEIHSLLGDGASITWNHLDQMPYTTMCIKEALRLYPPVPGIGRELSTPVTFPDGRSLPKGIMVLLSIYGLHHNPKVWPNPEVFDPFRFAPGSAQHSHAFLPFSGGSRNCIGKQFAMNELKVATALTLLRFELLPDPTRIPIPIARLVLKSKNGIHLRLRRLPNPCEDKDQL
# Test: CYP4A enzyme assay (luminescence, Luciferin-ME)
# Type: biochemical
# Settings: Compound concentration 5 μM; 70%-90%; read-out: % Inhibition 70%-90%
# Procedure, shortened: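 Compounds (5 μM) were preincubated 15 min at room temperature with CYP4A bactosomes in 100 mM KPO4, 0.1% BSA, 1 mM DTT. Reaction ran 30 min at room temperature after adding 5 mM Luciferin-ME and NADPH regeneration system. Luminescence after 15 min with detection reagent; inhibition judged by comparing well signals.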
row,Structure (SMILES),inhibition at 5 µM [%]
1,"O=C([C@H]1CCN(S(=O)(=O)c2ncn[nH]2)C1)N1CCN(c2ccnc3c(F)cccc23)CC1 [Example 138, (S)-(1-((1H-1,2,4-triazol-5-yl)sulfonyl)pyrrolidin-3-yl)(4-(8-fluoroquinolin-4-yl)piperazin-1-yl)methanone]",70 to 90
2,"O=C([C@H]1CCN(S(=O)(=O)c2ncnn2CCO)C1)N1CCN(c2ccnc3cc(F)ccc23)CC1 [Example 145, (S)-(4-(7-fluoroquinolin-4-yl)piperazin-1-yl)(1-((1-(2-hydroxyethyl)-1H-1,2,4-triazol-5-yl)sulfonyl)pyrrolidin-3-yl)methanone]",70 to 90

# Next, values leading:
row,inhibition at 5 µM [%],Structure (SMILES)
1,70 to 90,"Cn1cnc(S(=O)(=O)N2CC[C@H](C(=O)N3CCN(c4ccnc5cc(F)ccc45)CC3)C2)n1 [Example 139, (S)-(4-(7-fluoroquinolin-4-yl)piperazin-1-yl)(1-((1-methyl-1H-1,2,4-triazol-3-yl)sulfonyl)pyrrolidin-3-yl)methanone]"
2,70 to 90,CC(C)n1cnc(S(=O)(=O)N2CC[C@H](C(=O)N3CCN(c4ccnc5cc(F)ccc45)CC3)C2)n1 [Example 141]
3,70 to 90,"NCCn1cnc(S(=O)(=O)N2CC[C@H](C(=O)N3CCN(c4ccnc5cc(F)ccc45)CC3)C2)n1 [Example 144, (S)-(1-((1-(2-aminoethyl)-1H-1,2,4-triazol-3-yl)sulfonyl)pyrrolidin-3-yl)(4-(7-fluoroquinolin-4-yl)piperazin-1-yl)methanone]"

# Same assay, conditions: Compound concentration 5 μM; Greater than 90%; read-out: % Inhibition Greater than 90%
row,Structure (SMILES),inhibition at 5 µM [%]
1,"O=C([C@H]1CCN(S(=O)(=O)c2ncn[nH]2)C1)N1CCN(c2ccnc3ccc(F)cc23)CC1 [Example 136, (S)-(1-((1H-1,2,4-triazol-5-yl)sulfonyl)pyrrolidin-3-yl)(4-(6-fluoroquinolin-4-yl)piperazin-1-yl)methanone]",> 90
2,"O=C(C1CN(S(=O)(=O)c2ncn[nH]2)C1)N1CCN(c2ccnc3cc(F)ccc23)CC1 [Example 137, (1-((1H-1,2,4-triazol-5-yl)sulfonyl)azetidin-3-yl)(4-(7-fluoroquinolin-4-yl)piperazin-1-yl)methanone]",> 90
3,"CC(=O)Cn1cnc(S(=O)(=O)N2CC[C@H](C(=O)N3CCN(c4ccnc5cc(F)ccc45)CC3)C2)n1 [Example 142, (S)-1-(3-((3-(4-(7-fluoroquinolin-4-yl)piperazine-1-carbonyl)pyrrolidin-1-yl)sulfonyl)-1H-1,2,4-triazol-1-yl)propan-2-one]",> 90
4,"O=C([C@H]1CCN(S(=O)(=O)c2ncc[nH]2)C1)N1CCN(c2ccnc3cc(F)ccc23)CC1 [Example 146, (S)-(1-((1H-imidazol-2-yl)sulfonyl)pyrrolidin-3-yl)(4-(7-fluoroquinolin-4-yl)piperazin-1-yl)methanone]",> 90
5,"O=C([C@@H]1CCN(S(=O)(=O)c2ncc[nH]2)C1)N1CCN(c2ccnc3cc(F)ccc23)CC1 [Example 147, (R)-(1-((1H-imidazol-2-yl)sulfonyl)pyrrolidin-3-yl)(4-(7-fluoroquinolin-4-yl)piperazin-1-yl)methanone]",> 90
6,"O=C([C@H]1CCN(S(=O)(=O)c2nccn2CCO)C1)N1CCN(c2ccnc3cc(F)ccc23)CC1 [Example 148, (S)-(4-(7-fluoroquinolin-4-yl)piperazin-1-yl)(1-((1-(2-hydroxyethyl)-1H-imidazol-2-yl)sulfonyl)pyrrolidin-3-yl)methanone]",> 90

# Further lines, results first:
row,inhibition at 5 µM [%],Structure (SMILES)
1,> 90,"O=C([C@H]1CCN(S(=O)(=O)c2ncn(CCO)n2)C1)N1CCN(c2ccnc3cc(F)ccc23)CC1 [Example 140, (S)-(4-(7-fluoroquinolin-4-yl)piperazin-1-yl)(1-((1-(2-hydroxyethyl)-1H-1,2,4-triazol-3-yl)sulfonyl)pyrrolidin-3-yl)methanone]"
2,> 90,"COCCn1cnc(S(=O)(=O)N2CC[C@H](C(=O)N3CCN(c4ccnc5cc(F)ccc45)CC3)C2)n1 [Example 143, (S)-(4-(7-fluoroquinolin-4-yl)piperazin-1-yl)(1-((1-(2-methoxyethyl)-1H-1,2,4-triazol-3-yl)sulfonyl)pyrrolidin-3-yl)methanone]"
